The target of series [1] is T1, EYA1A (Homo sapiens, UniProt Q99502).
T1 construct: expressed in transfected cells; host or cells: transgenic fibroblasts
T1 sequence (Q99502 1-559 isoform Q99502-2): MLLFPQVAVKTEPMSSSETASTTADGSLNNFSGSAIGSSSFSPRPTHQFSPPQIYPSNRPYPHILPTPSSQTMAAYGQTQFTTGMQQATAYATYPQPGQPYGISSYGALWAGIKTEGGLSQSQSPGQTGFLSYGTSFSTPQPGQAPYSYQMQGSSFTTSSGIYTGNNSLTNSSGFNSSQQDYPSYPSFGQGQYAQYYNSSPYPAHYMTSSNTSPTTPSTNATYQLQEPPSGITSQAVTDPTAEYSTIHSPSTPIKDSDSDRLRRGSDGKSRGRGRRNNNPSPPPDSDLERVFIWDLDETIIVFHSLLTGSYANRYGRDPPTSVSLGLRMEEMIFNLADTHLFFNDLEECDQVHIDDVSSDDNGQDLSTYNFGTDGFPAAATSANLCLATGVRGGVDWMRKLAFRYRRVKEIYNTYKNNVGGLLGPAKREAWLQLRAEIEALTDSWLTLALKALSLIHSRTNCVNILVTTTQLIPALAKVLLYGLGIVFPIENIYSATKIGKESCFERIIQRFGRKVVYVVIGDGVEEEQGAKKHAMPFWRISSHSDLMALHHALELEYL
Nature of the series: Screen of NCI Mechanistic Set II for EYA1A phosphatase activity with pNPP substrate. Format: biochemical. The note with it: transgenic fibroblasts, compared to control cultures. As to the method: FIG. 14 illustrates results of a screen for additional compounds for selective modulation of EYA1A phosphatase activity. The EYA1A phosphatase activity was estimated using p-nitrophenyl phosphate (pNPP) substrate. Briefly, phosphatase activity was determined in transgenic fibroblasts and pNP production was determined in comparison to control cultures. Among 736 compounds contained in the NCI mechanistic set (NCI Mechanistic Set II), 228 inhibitors of EYA1A phosphatase activity were identified.
With regard to modulators of the phosphotyrosine phosphatase activity of EYA1, the inventors screened a small molecule library, namely the NCI “Mechanistic Set II library”, obtained from the open chemical repository of the Developmental Therapeutics Program (DTP) of the National Cancer Institute, illustrated by FIG. 14.
p-Nitrophenyl Phosphate (PNPP) is a non-proteinaceous, non-specific substrate used in the art to assay protein, alkaline and acid phosphatases. The PNPP phosphatase activity is measured using a continuous or single-point spectrophotometric assay based on the ability of phosphatases to catalyze the hydrolysis of PNPP to p-nitrophenol, a chromogenic product with absorbance at 405 nm. Any available protocol can be followed to determine phosphatase activity using pNPP.

The subject of series [2] is EYA1A^tg mice challenged with UUO. In words: Unilateral ureteral obstruction (UUO) kidney fibrosis in EYA1A^tg mice. Format: in vivo, mouse. As to the method:
From 3 days before surgery, C57BL/6 (referred as wildtype) or transgenic mice overexpressing human splice variants EYA1A (rtTACMV;hEYA1A-pTreTight, referred to as EYA1A^tg) and EYA1C (rtTACMV;hEYA1C-pTreTight, referred to as EYA1C^tg) were treated with either vehicle buffer (glucose 5%) or DOX (2 mg/ml, Sigma, St. Louis, USA) within drinking water ad libidum and renewal every 2 days.
Mice were anesthetized with isoflurane inhalation (2-3%), analgesia was performed by subcutaneous injection of 0.1 mg/kg body weight per day Buprenorphine. The ureter was separated from the surrounding tissues and two ligatures were placed about 5 mm apart in upper two-thirds of the left ureter to obtain reliable obstruction. Mice were sacrificed 3, 7 or 10 days after ureteral obstruction for further analyses.
Mice were injected intraperitoneally with Na3VO4 (8 mg/kg i.p. once per day, Sigma, St. Louis, USA) or caffeine (12.5 mg/kg i.p. once per day, Sigma, St. Louis, USA) starting one day prior of surgery, control mice received equivalent volume of PBS or DMSO.
Mice were injected intraperitoneally with SCR7 (20 mg/kg i.p. every alternate day, Sigma, St. Louis, USA) starting one day prior of surgery, control mice received equivalent volume of DMSO.
The inventors obtained 25 nucleotide antisense morpholino sequences (Gene Tools, Philomath, USA). The in vivo morpholinos contain a covalently linked octaguanidine dendrimer as a delivery moiety to facilitate entry into cells in vivo. Mice were injected intraperitoneally with 12.5 mg/kg body weight in vivo morpholinos in saline at a final volume of 100 μL every other day starting two days prior of surgery. A control in vivo
Lentiviral pLenti-Sce1 was produced in 293T virus packaging cells after transfection using morpholino that targets a human β-globin intron mutation was used as standard control. In vivo morpholino sequences are those of SEQ ID NOs: 9 (EYA1A-VMO), 10 (53Bp1-VMO) and 16 (control).
Formalin-fixed, paraffin-embedded kidneys and hearts from mice, and HOPE-fixed, paraffin-embedded human specimens were sectioned at 3 μm, Masson's Trichrome Stain (MTS) was performed at the University Medicine Göttingen. For morphometric analysis of interstitial fibrosis in mice and human biopsies, we assessed the fibrotic area using cellSens (Olympus, Tokyo, Japan) software. Ten visual fields were selected randomly for each MTS stained section at 200× magnification and the relative interstitial fibrotic area was evaluated by using a 10 mm^2 graticule.
Formalin-fixed, paraffin-embedded kidney sections from mice as well as from HOPE-fixed, paraffin-embedded human specimens were deparaffinized in xylene and rehydrated in ethanol containing distilled water. For immunofluorescent staining, EYA1 isoform antisera or primary antibodies against αSMA (A5228, Sigma, St. Louis, USA), Collagen-1 (ab34710, Abcam Biochemicals, Cambridge, UK), γH2A.X^pS139 (ab2893, Abcam Biochemicals, Cambridge, UK), γH2A.X^pS139 (05-636, Merck Millipore, Billerica, UK), γH2A.X^pY142 (ab94602, Abcam Biochemicals, Cambridge, UK), p-Chk1^pS317 (12302P, Cell Signaling, Danvers, USA), p-Chk2^pT68 (2197S, Cell Signaling, Danvers, USA), Rpa1 (2267S, Cell Signaling, Danvers, USA), Rad51 (sc-8349, Santa Cruz Biotechnology, Dallas, USA), 53Bp1 (sc-22760, Santa Cruz Biotechnology, Dallas, USA), Xrcc4 (sc-8285, Santa Cruz Biotechnology, Dallas, USA) and GFP (MA5-15256, Thermo Fisher Scientific, Waltham, USA) were used, secondary antibodies were labeled with Alexa Fluor 488, 594 or 647 (Life Technologies, Carlsbad, USA). Renal basement membranes were stained with antibodies against Collagen-4 (1340-30, SouthernBiotech, Birmingham, USA). Nuclear staining was performed using 4′,6-diamidino-2-phenylindole (DAPI, Vector Laboratories, Burlingame, USA). Quantifications were performed per high power field at 400× magnification, representative confocal pictures using an LSM 780 confocal laser scanning microscope (Zeiss, Oberkochen, Germany) are shown.

Setting [3] is: SCR7 20 mg/kg i.p. every alternate day, EYA1A overexpressing mice, 10 days after ureteral obstruction.
Setting [4] is: in vivo morpholino 12.5 mg/kg i.p. every other day, EYA1A^tg mice, UUO, 10 days.

As to “Hexapotassium hexatriaconta-p-oxooctadecaoxobis [μ9-[phosphato(3-)-κO:κO:κO:κO′:κO′:κO″:κO″:κO′″:κO′″]]octadeca-molybdate(6-) [NSC No. 622124]”, the EYA1A phosphatase activity result in series [1] is “Strong inhibitors”.

In the case of `O=C1C(c2cnc3ccccc3n2)=C(O)c2ccccc21` [NSC No. 634224, 3-hydroxy-2-(2-quinoxalinyl)-1-indenone], the EYA1A phosphatase activity entry in series [1] was “Strong inducers”.

In the case of `O=c1[nH]c(=S)[nH]c(N=Cc2ccccc2)c1N=Cc1ccccc1` [SCR7], in series [2] (setting [3]), the fibroblast accumulation entry is listed as “significantly reduced” and the fibrosis entry is listed as “significantly reduced”.

With “[Mo12O36(PO4)] disodium salt [NSC No. 622116]”, the EYA1A phosphatase activity result in series [1] was “Strong inhibitors”.

On to `N#CC(=C1C=CC(=NO)C=C1)c1ccc(Cl)cc1` [NSC No. 405158, alpha-(p-chlorophenyl)-4-oxo-2,5-cyclohexadiene-δ1,α-acetonitrile oxime], for which the EYA1A phosphatase activity result in series [1] is listed as “Strong inducers”.

For the molecule “53Bp1-VMO: in vivo morpholino, SEQ ID NO: 10, with covalently linked octaguanidine dendrimer, blocking 53Bp1 translation (TCCATCTGCTCCCCTGGCATCC; all phosphorodiamidate morpholino (PMO); octaguanidine dendrimer covalently linked, position not given here, further chemistry not fully specified)”, in series [2] (in vivo morpholino 12.5 mg/kg i.p. every other day, EYA1A-overexpressing mice, UUO), the “presence of Rpa1 (indicative of HR)” value is “increased presence of Rpa1”. The “53Bp1 within chronically injured kidneys” value in series [2] (in vivo morpholino 12.5 mg/kg i.p. every other day, EYA1A^tg mice, UUO) is listed as “Depletion of 53Bp1”. In series [2] (setting [4]), the fibroblast accumulation entry is reported as “attenuated” and the renal fibrosis result is “attenuated”.

On to “EYA1A-VMO: in vivo morpholino, SEQ ID NO: 9, with covalently linked octaguanidine dendrimer, specifically inhibiting EYA1A translation (CTGCAACTTGAGGAAACAGCAACAT; all phosphorodiamidate morpholino (PMO); octaguanidine dendrimer covalently linked, position not given here, further chemistry not fully specified)”, for which the pro-fibrotic effects result in series [2] (in vivo morpholino 12.5 mg/kg i.p. every other day, EYA1A overexpressing mice, 10 days after ureteral obstruction) is on record as “reversed pro-fibrotic effects”.

As to `O=c1ccc(-c2ccccc2)nn1-c1nc2ccccc2s1` [NSC No. 629659, 2-(2-benzothiazolyl)-6-phenyl-3(2H)-pyridazinone], the EYA1A phosphatase activity result in series [1] is given as “Strong inducers”.

As to `Cc1c2ccncc2cc2c1[nH]c1ccccc12` [NSC 87206, 5-Methyl-6H-pyrido(4,3-b)carbazole], the EYA1A phosphatase activity entry in series [1] was “Strong inhibitors”.

On to `O=C1C=C(Nc2ccccc2C(=O)CC(=O)C(=O)Nc2ccc(Cl)cc2)c2ccccc2C1=O` [NSC No. 641253], for which, in series [1], the EYA1A phosphatase activity result was “Strong inhibitors”.

In the case of `CN(C)c1cccc(/C=C(\C#N)c2ccccc2)c1` [NSC No. 667251, (Z)-3-[3-(dimethylamino)phenyl]-2-phenylprop-2-enenitrile], the EYA1A phosphatase activity result in series [1] is recorded as “Strong inducers”.

Regarding `COc1cc2cc3c4cc(OC)c(OC)cc4cc[n+]3c(C)c2cc1OC.O=C([O-])CS(=O)(=O)O` [NSC No. 154890, Dibenzo(a,g)quinolizinium, 2,3,10,11-tetramethoxy-8-methyl-sulfoacetate], the EYA1A phosphatase activity entry in series [1] was “Strong inhibitors”.

The record behind these values is patent publication US11331333B2, “Treatment of aberrant fibroblast proliferation” (Georg August Universitaet Goettingen Stiftung Oeffentlichen …, priority 2019, dated 2022).
